Measurements published in patent US6482921B1, “Uridyl peptide antibiotic (UPA) derivatives, their synthesis and use” (Essential Therapeutics, Inc., priority 1999, dated 2002).
Converted amounts (≈) assume the structure as drawn.

How the values were obtained:
Assay type in all cases: cell-based
[1] = tested on: Pseudomonas aeruginosa PAM 1020; experiment: MIC broth microdilution, P. aeruginosa PAM 1020 (wild type); settings: P. aeruginosa PAM 1020
[2] = tested on: Pseudomonas aeruginosa PAM 1154; experiment: MIC broth microdilution, P. aeruginosa PAM 1154 (OprM::Hg); settings: P. aeruginosa PAM 1154 OprM::Hg
[3] = tested on: Pseudomonas aeruginosa PAM 1135; experiment: MIC broth microdilution, P. aeruginosa PAM 1135 (high level UPA resistance); settings: P. aeruginosa PAM 1135 UPA1^r
Escherichia Coli MC 4100 = experiment: MIC broth microdilution, E. coli MC 4100 (wild type); settings: E. coli MC 4100
[4] = tested on: Escherichia Coli MC 4100 AcrAB; experiment: MIC broth microdilution, E. coli MC 4100 AcrAB (ΔAcrAB); settings: E. coli AcrAB
[5] = tested on: Escherichia Coli MC 4100 AcrAB UPA3r; experiment: MIC broth microdilution, E. coli MC 4100 AcrAB UPA3r (ΔAcrAB, UPA resistant); settings: E. coli AcrAB UPA3^r
[6] = tested on: Staphylococcus aureus ATCC 29213; experiment: MIC broth microdilution, S. aureus ATCC 29213 (wild type); settings: S. aureus ATCC 29213
[7] = tested on: Staphylococcus aureus 8325-4; experiment: MIC broth microdilution, S. aureus 8325-4 (wild type); settings: S. aureus 8325-4

Row | Compound | MIC (μg/ml) Broth microdilution [1] | MIC (μg/ml) Broth microdilution [2] | MIC (μg/ml) Broth microdilution [3] | MIC (μg/ml) Broth microdilution (Escherichia Coli MC 4100) | MIC (μg/ml) Broth microdilution [4] | MIC (μg/ml) Broth microdilution [5] | MIC (μg/ml) Broth microdilution [6] | MIC (μg/ml) Broth microdilution [7]
1 | CC(C(NC(=O)C(Cc1ccccc1)NC(=O)NC(Cc1c[nH]c2ccccc12)C(=O)O)C(=O)NCC1CC(O)C(n2ccc(=O)[nH]c2=O)O1)N(C)C(=O)C(N)CCCCN [Compound 147, 1-[5′-[(2S,3S)-N^2-[N-[[(1S)-1-Carboxy-2-indol-3-ylethyl]carbamoyl]-L-phenylalanyl]-N^3-L-lysinyl-N^3-methyl-2,3-diaminobutyramido]-3′,5′-dideoxy-α-L-arabinofuranosyl]uracil] | 32 µg/mL (≈ 37.8 µM) | 16 µg/mL (≈ 18.9 µM) | >512 µg/mL | >512 µg/mL | >512 µg/mL | >512 µg/mL | >512 µg/mL | >512 µg/mL
2 | CC(C)C[C@H](NC(=O)N[C@@H](Cc1c[nH]c2ccccc12)C(=O)O)C(=O)N[C@H](C(=O)NC[C@H]1C[C@@H](O)[C@H](n2ccc(=O)[nH]c2=O)O1)[C@H](C)N(C)C(=O)[C@H](C)N [Compound 170, 1-[5′-[(2S,3S)-N^3-L-Alanyl-N^2-[N-[[(1S)-1-carboxy-2-indol-3-ylethyl)carbamoyl]-L-leucinyl]-N^3-methyl-2,3-diaminobutyramido]-3′,5′-dideoxy-α-L-arabinofuranosyl]uracil] | 64 µg/mL (≈ 84.7 µM) | 4 µg/mL (≈ 5.29 µM) | >512 µg/mL | 128 µg/mL (≈ 169 µM) | 2 µg/mL (≈ 2.65 µM) | 1 µg/mL (≈ 1.32 µM) | >512 µg/mL | >512 µg/mL
3 | C[C@H](NC(=O)N[C@@H](Cc1c[nH]c2ccccc12)C(=O)O)C(=O)N[C@H](C(=O)NC[C@H]1C[C@@H](O)[C@H](n2ccc(=O)[nH]c2=O)O1)[C@H](C)N(C)C(=O)[C@@H](C)N [Compound 171, 1-[5′-[(2S,3S)-N^3-D-Alanyl-N^2-[N-[[(1S)-1-carboxy-2-indol-3-ylethyl]carbamoyl]-L-alanyl]-N^3-methyl-2,3-diaminobutyramido]-3′,5′-dideoxy-α-L-arabinofuranosyl]uracil] | 512 µg/mL (≈ 717 µM) | 32 µg/mL (≈ 44.8 µM) | >512 µg/mL | >512 µg/mL | 16 µg/mL (≈ 22.4 µM) | 128 µg/mL (≈ 179 µM) | >512 µg/mL | >512 µg/mL
4 | C[C@H](N)C(=O)N(C)[C@@H](C)[C@H](NC(=O)[C@H](C)NC(=O)N[C@@H](Cc1c[nH]c2ccccc12)C(=O)O)C(=O)NC[C@@H]1C[C@@H](O)[C@@H](n2ccc(=O)[nH]c2=O)O1 [Compound 172, 1-[5′-[(2S,3S)-N^3-L-Alanyl-N^2-[N-[[(1S)-1-carboxy-2-indol-3-ylethyl]carbamoyl]-L-alanyl]-N^3-methyl-2,3-diaminobutyramido]-3′,5′-dideoxy-α-D-ribofuranosyl]uracil] | 64 µg/mL (≈ 89.7 µM) | 4 µg/mL (≈ 5.6 µM) | >512 µg/mL | 16 µg/mL (≈ 22.4 µM) | 128 µg/mL (≈ 179 µM) | 16 µg/mL (≈ 22.4 µM) | 512 µg/mL (≈ 717 µM) | >512 µg/mL
5 | Dihydropacidamycin 1 [Compound 5] | 64 µg/mL | 16 µg/mL | >512 µg/mL | 512 µg/mL | 8 µg/mL | 32 µg/mL | >512 µg/mL | >512 µg/mL
